Consider 3 compounds from paper PMC10253812, “Novel 2-alkythio-4-chloro-N-[imino(heteroaryl)methyl]benzenesulfonamide Derivatives: Synthesis, Molecular Structure, Anticancer Activity and Metabolic Stability” (International Journal of Molecular Sciences, 2023).

In general, IC50 refers to the concentration that gives 50% inhibition. One may read the viability as the share of living cells, or the viability signal relative to a control.

Read-outs that look alike come from different tables or passages of the source. Where only a bound is given, the exact number is not on record here.

Format in all cases: cell-based, human
Assay [1] relates to MCF-7 (breast cancer) cell line. As to the kind of experiment: MTT cell viability assay, MCF-7. The following applies: Homo sapiens, MCF7; for viability at 100 µM: MCF-7, MTT, 72 h, read-out: Viability of cell line in the presence of 100 μM of the tested compound. The method, then: (§1) Compounds 8–24 were evaluated in vitro for their cytotoxic effect against three human cancer cell lines, i.e., HeLa (cervical cancer), HCT-116 (colon cancer) and MCF-7 (breast cancer), and the non-tumor cell line HaCaT using the MTT assay after 72 h of incubation. The results of tests are presented in Table 1 as IC50, indicating the concentration required for 50% inhibition of cell viability. Compounds 8–10 and 14–18 are not presented in the Table 1 because of their low potency (IC50 > 100 µM).
(§2) All chemicals, if not stated otherwise, were obtained from Sigma-Aldrich (St. Louis, MO, USA). The MCF-7, HeLa and HaCaT cell lines were purchased from Cell Lines Services (Eppelheim, Germany), and the HCT-116 cell line was purchased from ATCC (ATCC-No: CCL-247). The cells were cultured in Dulbecco’s modified Eagle’s medium (DMEM) supplemented with 10% fetal bovine serum, 2 mM glutamine, 100 units/mL of penicillin and 100 μg/mL of streptomycin. The cultures were maintained in a humidified atmosphere with 5% CO2 at 37 °C, in an incubator (Heraeus, HeraCell).
(§3) Cytotoxicity assay: Cell viability was determined using the MTT (3-(4,5-dimethylthiazol-2-yl)-2,5diphenyltetrazoliumbromide) assay. The cells were seeded in 96-well plates at a density of 5 × 10^3 cells/well and treated for 24, 48 and 72 h with the examined compounds in the concentration range 1–100 μM. Following treatment, MTT (0.5 mg/mL) was added to the medium, and the cells were further incubated for 2 h at 37 °C. the cells were lysed with DMSO, and the absorbance of the formazan solution was measured at 550 nm with a plate reader (Victor, 1420 multilabel counter). The experiment was performed in triplicate. The values are expressed as the mean ± SD of at least three independent experiments.
Background: Formazan colour is commonly taken as a measure of viable cells.

The test system of assay [2] is HeLa (cervical cancer) cell line. As to the kind of experiment: MTT cell viability assay, HeLa. The following applies: for IC50: Homo sapiens, HeLa. The protocol: as §1
The cytotoxic activity of 11–13 was determined in a time-dependent manner with the MTT assay (Figure 3).
HeLa cells were treated with 11, 12 and 13 in the concentration range of 0–20 µM. […] After 48 h, the IC50 values for compounds 11, 12 and 13 were 6, 7 and 6 µM, respectively.
as §2, §3

Assay [3] concerns caspase activity in HeLa cells. As to the kind of experiment: Caspase activity determination (FLICA, FAM-VAD-FMK), flow cytometry. The following applies: HeLa, 5, 7 and 10 µM, 24 h. The protocol:
Apoptosis induction was further determined by examining the effects of 11, 12 and 13 on caspase activation in HeLa cells. Caspase activity induction was determined with the use of the fluorescently labeled caspase inhibitor-FAM-VAD-FMK (a carboxyfluorescein derivative of valylalanylaspartic acid fluoromethyl ketone). The caspase inhibitor binds to active caspases inhibiting their enzymatic activity, thus allowing caspase activity quantification through determining the fluorescent intensity of the bound inhibitor. […] Increased caspase activation was shown by the increased fluorescence of the caspase inhibitor in the cell population, as indicated in Figure 6.
Caspase Activity Determination: Caspase activity was determined with the FLICA Apoptosis Detection Kit (Immunochemistry Technologies) according to the manufacturer’s instructions. The cells were treated with comp. 11, 12 and 13 (5, 7 and 10 µM) for 24 h, after which the cells were collected and suspended in a buffer containing the caspase inhibitor, i.e., a carboxyfluorescein-labeled fluoromethyl ketone peptide. The cells were subsequently incubated for 1 h at 37 °C under 5% CO2 and, next, they were washed with a washing buffer. The fluorescence intensity of fluorescein was determined by flow cytometry (BD FACSCalibur), and caspase activity was determined as the amount of fluorescence emitted from the caspase inhibitors bound to the caspases. The data were analyzed with Flowing software (version 2.5).
(In flow cytometry, cells or beads pass a laser one at a time.)

Another assay concerns HeLa cells. As to the kind of experiment: Cell cycle distribution analysis (PI staining, flow cytometry). As to conditions: 48 h; for percentage of cells in the sub-G1 phase of the cell cycle: HeLa, 5, 7 and 10 µM. The protocol:
The effects of compounds 11, 12 and 13 on the cell cycle phase distribution of HeLa cells were assessed by flow cytometry. The cells were treated with 5, 7 and 10 µM concentrations of […] and 13 for 48 h and stained with PI.
Cell Cycle Distribution Analysis: The effects of 11, 12 and 13 on the cell cycle distribution in HeLa cells were determined by flow cytometry analysis. The cells were treated with 11, 12 and 13 (5, 7 and 10 µM) for 48 h, after which they were fixed in cold 70% ethanol for 24 h. The fixed cells were treated with 100 µg/mL of RNAse (Invitrogen, Germany) and stained with 10 µg/mL of PI (Invitrogen, Germany) for 30 min at RT. The acquisition was performed on a FACSCalibur cytometer (BD), and the data were analyzed with Flowing software (version 2.5).

Where [4] appears, read: MTT assay, 72 h of incubation, read-out: IC50 HeLa.
Setting [5] is: MTT, 24 h of treatment, 0–20 µM.

`Cc1cc(S(=O)(=O)NC(=N)n2ccn(C)c2=S)c(SCc2ccc(Cl)cc2)cc1Cl` [Compound 11, 4-Chloro-N-[imino(3-methyl-2-thioxo-2,3-dihydro-1H-imidazol-1-yl)methyl]-5-methyl-2-(4-chlorobenzylthio)benzenesulfonamide]: the IC50 in assay [1] (MTT assay, 72 h of incubation) is > 100 µM; in assay [2] (setting [4]) it was 6 ± 0.1 µM. Besides, in assay [2] (setting [5]), the “IC50 HeLa after 24 h” value is listed as “not reached”. Besides, in assay [3], the caspase activity induction entry is given as “induced caspase activity in HeLa cells in a dose-dependent manner”. In addition, the “percentage of cells in the sub-G1 phase of the cell cycle” value (“percentage of cells” below) in the assay with HeLa cells is recorded as “increase in the percentage of cells in the sub-G1 phase”.
`Cc1cc(S(=O)(=O)NC(=N)n2ccn(C)c2=S)c(SCc2cc3c(cc2Cl)OCO3)cc1Cl` [Compound 12]: in assay [1], the viability at 100 µM was found to be 100%. Further, the IC50 in assay [2] (setting [4]) worked out at 7 ± 0.3 µM. For the same compound, the “IC50 HeLa after 24 h” value in assay [2] (setting [5]) is “not reached”. The caspase activity induction entry in assay [3] is on record as “induced caspase activity in HeLa cells in a dose-dependent manner”. For the same compound, the “percentage of cells” value in the assay on HeLa cells was “increase in the percentage of cells in the sub-G1 phase”. The cell cycle arrest result in the assay with HeLa cells (HeLa, 7 and 10 μM) is given as “induced G2/M arrest”.
On to `Cc1cc(S(=O)(=O)NC(=N)n2ccn(C)c2=S)c(SCc2cccc3ccccc23)cc1Cl` [Compound 13, 4-Chloro-N-[imino(3-methyl-2-thioxo-2,3-dihydro-1H-imidazol-1-yl)methyl]-5-methyl-2-(naphthalen-1-ylmethylthio)benzenesulfonamide], for which the viability at 100 µM in assay [1] is 100%. The IC50 stood at 6 ± 0.1 µM in assay [2] (setting [4]) and 18 µM in assay [2] (MTT, 24 h of treatment, 0–20 µM, read-out: IC50 HeLa after 24 h). Besides, the caspase activity induction result in assay [3] is “induced caspase activity in HeLa cells in a dose-dependent manner”. In the assay on HeLa cells, the “percentage of cells” value is given as “increase in the percentage of cells in the sub-G1 phase”.
